The EC50 is the concentration giving half of the maximal effect. Lower therefore signals higher potency in that assay.

The subject of this experiment is Nrf2 transcriptional activity (pARE-Luc reporter) in HepG2 cells. Description: In vitro Nrf2 transcriptional activity measurement by ARE-dependent reporter assay in HepG2 cell. To be noted: Homo sapiens; HepG2 cells transfected with pARE-Luc, 4 hours at 37° C.; luciferase activity of Example 1-54 or Example 17-23 at 3.75 μM defined as 100%. The class given is cell-based, human. Here is the method:
Test Example 1: In Vitro Nrf2 Transcriptional Activity Measurement by ARE-Dependent Reporter Assay in HepG2 Cell
A human liver cancer-derived cell line HepG2 was transfected with pGL4.37 vector (pARE-Luc, Promega Corp.) and incubated overnight at 37° C. in a humidified atmosphere containing 5% CO2. The cells were dissociated by trypsin treatment, inoculated to a 384-well plate supplemented with a test compound, and incubated at 37° C. for 4 hours. Then, Bright-Glo Reagent (Promega Corp.) was added to the plate, and luciferase activity was measured with Envision plate reader.
Luciferase activity obtained through the action of the compound of Example 1-54 or Example 17-23 at a concentration of 3.75 μM was defined as 100%. The luciferase activity of each well was converted to a response rate (%). The dose-response curve of the compound of each Example was prepared to calculate a 50% effective concentration (EC50).
(In general: In a reporter assay the amount or activity of a reporter protein is the signal.)
In the case of `CO[C@@H]1CC2(CN(c3cc(Cl)c(C(=O)N4COc5c(cccc5-c5cc(N6C7CCC6COC7)c(C(=O)O)cc5F)C4)c(Cl)c3)C2)[C@H]1C` (racemic) [Compound 1-86, 4-[3-[2,6-Dichloro-4-[rac-(6R,7R)-6-methoxy-7-methyl-2-azaspiro[3.3]heptan-2-yl]benzoyl]-2,4-dihydro-1,3-benzoxazin-8-yl]-5-fluoro-2-(3-oxa-8-azabicyclo[3.2.1]octan-8-yl)benzoic acid], the half-maximal effective concentration (EC50) turned out to be 1.1 nM. This counts as single-digit nanomolar.

On to `CO[C@H]1CC2(CN(c3cc(Cl)c(C(=O)N4COc5c(cccc5-c5cc(N6C7CCC6COC7)c(C(=O)O)cc5F)C4)c(Cl)c3)C2)[C@H]1C` (racemic) [Compound 1-87, 4-[3-[2,6-Dichloro-4-[rac-(6R,7S)-6-methoxy-7-methyl-2-azaspiro[3.3]heptan-2-yl]benzoyl]-2,4-dihydro-1,3-benzoxazin-8-yl]-5-fluoro-2-(3-oxa-8-azabicyclo[3.2.1]octan-8-yl)benzoic acid], for which the response was half-maximal at 1 nM (EC50).

In turn, `CO[C@H]1C[C@H]2CC[C@@H](C1)N2c1cc(Cl)c(C(=O)N2COc3c(cccc3-c3cc(N4C5CCC4COC5)c(C(=O)O)cc3F)C2)c(Cl)c1` (racemic) [Compound 6-11, 4-[3-[2,6-Dichloro-4-[rac-(1R,3r,5S)-3-methoxy-8-azabicyclo[3.2.1]octan-8-yl]benzoyl]-2,4-dihydro-1,3-benzoxazin-8-yl]-5-fluoro-2-(3-oxa-8-azabicyclo[3.2.1]octan-8-yl)benzoic acid] displayed a half-maximal effective concentration (EC50) of 1.5 nM.

The molecule `CO[C@H]1C[C@H]2CN(c3cc(Cl)c(C(=O)N4COc5c(cccc5-c5cc(N6C7CCC6COC7)c(C(=O)O)cc5F)C4)c(Cl)c3)C[C@H]21` (racemic) [Compound 6-12, 4-[3-[2,6-Dichloro-4-[rac-(1R,5S,6S)-6-methoxy-3-azabicyclo[3.2.0]heptan-3-yl]benzoyl]-2,4-dihydro-1,3-benzoxazin-8-yl]-5-fluoro-2-(3-oxa-8-azabicyclo[3.2.1]octan-8-yl)benzoic acid] had a concentration for a half-maximal effect (EC50) of 3.9 nM.

`COC1CCC12CN(c1cc(Cl)c(C(=O)N3COc4c(cccc4-c4cc(N5C6CCC5COC6)c(C(=O)O)cc4F)C3)c(Cl)c1)C2` (racemic) [Compound 6-13, 4-[3-[2,6-Dichloro-4-(rac-7-methoxy-2-azaspiro[3.3]heptan-2-yl)benzoyl]-2,4-dihydro-1,3-benzoxazin-8-yl]-5-fluoro-2-(3-oxa-8-azabicyclo[3.2.1]octan-8-yl)benzoic acid] came in with a concentration giving a half-maximal response (EC50) of 3.8 nM. This EC50 and that of the molecule before are within 1.5-fold of each other.

For `COCCN1CCN(c2cc(Cl)c(C(=O)N3COc4c(cccc4-c4cc(N5CCOCC5C#N)c(C(=O)O)cc4F)C3)c(Cl)c2)CC1` (racemic) [Compound 20-10, rac-2-(3-Cyanomorpholin-4-yl)-4-[3-[2,6-dichloro-4-[4-(2-methoxyethyl)piperazin-1-yl]benzoyl]-2,4-dihydro-1,3-benzoxazin-8-yl]-5-fluorobenzoic acid], the EC50 worked out at 25 nM.

Regarding `O=C(O)c1cc(F)c(-c2cccc3c2OCN(C(=O)c2c(Cl)cc(OC4CCOC4)cc2Cl)C3)cc1N1C2CCC1COC2` (stereo in doubt) [Compound 4-36, 4-[3-[2,6-Dichloro-4-[(3R)-oxolan-3-yl]oxybenzoyl]-2,4-dihydro-1,3-benzoxazin-8-yl]-5-fluoro-2-(3-oxa-8-azabicyclo[3.2.1]octan-8-yl)benzoic acid], a half-maximal effect (EC50) was put at 8.7 nM.

The molecule `O=C(O)c1cc(F)c(-c2cccc3c2OCN(C(=O)c2c(Cl)cc(N4CC5(CCCO5)C4)cc2Cl)C3)cc1N1C2CCC1COC2` [Compound 1-1, 4-[3-[2,6-Dichloro-4-(5-oxa-2-azaspiro[3.4]octan-2-yl)benzoyl]-2,4-dihydro-1,3-benzoxazin-8-yl]-5-fluoro-2-(3-oxa-8-azabicyclo[3.2.1]octan-8-yl)benzoic acid] gave an EC50 of 2.8 nM. This EC50 is about 3.1-fold lower than that of the molecule before.

Take `O=C(O)c1cc(F)c(-c2cccc3c2OCN(C(=O)c2c(Cl)cc(N4CC5(CCO5)C4)cc2Cl)C3)cc1N1C2CCC1COC2` [Compound 1-2, 4-[3-[2,6-Dichloro-4-(1-oxa-6-azaspiro[3.3]heptan-6-yl)benzoyl]-2,4-dihydro-1,3-benzoxazin-8-yl]-5-fluoro-2-(3-oxa-8-azabicyclo[3.2.1]octan-8-yl)benzoic acid]: the response was half-maximal at 8.6 nM (EC50).

Molecule `O=C(O)c1cc(F)c(-c2cccc3c2OCN(C(=O)c2c(Cl)cc(N4CC5(CCOC5)C4)cc2Cl)C3)cc1N1C2CCC1COC2` [Compound 1-3, 4-[3-[2,6-Dichloro-4-(6-oxa-2-azaspiro[3.4]octan-2-yl)benzoyl]-2,4-dihydro-1,3-benzoxazin-8-yl]-5-fluoro-2-(3-oxa-8-azabicyclo[3.2.1]octan-8-yl)benzoic acid] returned an EC50 of 5.8 nM.

`O=C(O)c1cc(F)c(-c2cccc3c2OCN(C(=O)c2c(Cl)cc(N4C5COCC4C5)cc2Cl)C3)cc1N1C2CCC1COC2` [Compound 1-5, 4-[3-[2,6-Dichloro-4-(3-oxa-6-azabicyclo[3.1.1]heptan-6-yl)benzoyl]-2,4-dihydro-1,3-benzoxazin-8-yl]-5-fluoro-2-(3-oxa-8-azabicyclo[3.2.1]octan-8-yl)benzoic acid]: a half-maximal effect (EC50) was put at 3.1 nM.

`O=C(O)c1cc(F)c(-c2cccc3c2OCN(C(=O)c2c(Cl)cc(N4CC5(CC(O)C5)C4)cc2Cl)C3)cc1N1C2CCC1COC2` [Compound 1-6, 4-[3-[2,6-Dichloro-4-(6-hydroxy-2-azaspiro[3.3]heptan-2-yl)benzoyl]-2,4-dihydro-1,3-benzoxazin-8-yl]-5-fluoro-2-(3-oxa-8-azabicyclo[3.2.1]octan-8-yl)benzoic acid] yielded an EC50 of 9.6 nM.

On to `O=C(O)c1cc(F)c(-c2cccc3c2OCN(C(=O)c2c(Cl)cc(N4CC5(C4)CC5(F)F)cc2Cl)C3)cc1N1C2CCC1COC2` [Compound 1-7, 4-[3-[2,6-Dichloro-4-(2,2-difluoro-5-azaspiro[2.3]hexan-5-yl)benzoyl]-2,4-dihydro-1,3-benzoxazin-8-yl]-5-fluoro-2-(3-oxa-8-azabicyclo[3.2.1]octan-8-yl)benzoic acid], for which the concentration giving a half-maximal response (EC50) worked out at 2 nM. This EC50 is about 4.8-fold lower than that of the molecule before.

The molecule `COC1(C(F)F)CN(c2cc(Cl)c(C(=O)N3COc4c(cccc4-c4cc(N5C6CCC5COC6)c(C(=O)O)cc4F)C3)c(Cl)c2)C1` [Compound 1-8, 4-[3-[2,6-Dichloro-4-[3-(difluoromethyl)-3-methoxyazetidin-1-yl]benzoyl]-2,4-dihydro-1,3-benzoxazin-8-yl]-5-fluoro-2-(3-oxa-8-azabicyclo[3.2.1]octan-8-yl)benzoic acid] registered a half-maximal effective concentration (EC50) of 2.2 nM.

As to `COC1CN(c2cc(Cl)c(C(=O)N3COc4c(cccc4-c4cc(N5C6CCC5COC6)c(C(=O)O)cc4F)C3)c(Cl)c2)C1(C)C` (stereo not drawn) [Compound 1-9, 4-[3-[2,6-Dichloro-4-(3-methoxy-2,2-dimethylazetidin-1-yl)benzoyl]-2,4-dihydro-1,3-benzoxazin-8-yl]-5-fluoro-2-(3-oxa-8-azabicyclo[3.2.1]octan-8-yl)benzoic acid], a half-maximal effect (EC50) was put at 4.6 nM.

`O=C(O)c1cc(F)c(-c2cccc3c2OCN(C(=O)c2c(Cl)cc(N4CC(OC(F)F)C4)cc2Cl)C3)cc1N1C2CCC1COC2` [Compound 1-10, 4-[3-[2,6-Dichloro-4-[3-(difluoromethoxy)azetidin-1-yl]benzoyl]-2,4-dihydro-1,3-benzoxazin-8-yl]-5-fluoro-2-(3-oxa-8-azabicyclo[3.2.1]octan-8-yl)benzoic acid] came in with an EC50 of 3.1 nM.

The molecule `CC1(F)CN(c2cc(Cl)c(C(=O)N3COc4c(cccc4-c4cc(N5C6CCC5COC6)c(C(=O)O)cc4F)C3)c(Cl)c2)C1` [Compound 1-11, 4-[3-[2,6-Dichloro-4-(3-fluoro-3-methylazetidin-1-yl)benzoyl]-2,4-dihydro-1,3-benzoxazin-8-yl]-5-fluoro-2-(3-oxa-8-azabicyclo[3.2.1]octan-8-yl)benzoic acid] gave an EC50 of 2.1 nM.

In turn, `O=C(O)c1cc(F)c(-c2cccc3c2OCN(C(=O)c2c(Cl)cc(N4CC(O)(C(F)(F)F)C4)cc2Cl)C3)cc1N1C2CCC1COC2` [Compound 1-12, 4-[3-[2,6-Dichloro-4-[3-hydroxy-3-(trifluoromethyl)azetidin-1-yl]benzoyl]-2,4-dihydro-1,3-benzoxazin-8-yl]-5-fluoro-2-(3-oxa-8-azabicyclo[3.2.1]octan-8-yl)benzoic acid] returned a 50% effective concentration (EC50) of 16 nM.

`O=C(O)c1cc(F)c(-c2cccc3c2OCN(C(=O)c2c(Cl)cc(N4CC5(CC5)C4)cc2Cl)C3)cc1N1C2CCC1COC2` [Compound 1-13, 4-[3-[4-(5-Azaspiro[2.3]hexan-5-yl)-2,6-dichlorobenzoyl]-2,4-dihydro-1,3-benzoxazin-8-yl]-5-fluoro-2-(3-oxa-8-azabicyclo[3.2.1]octan-8-yl)benzoic acid] had a 50% effective concentration (EC50) of 2.4 nM. This EC50 is about 6.7-fold lower than that of the molecule before.

In turn, `O=C(O)c1cc(F)c(-c2cccc3c2OCN(C(=O)c2c(Cl)cc(N4CC(OC(F)(F)F)C4)cc2Cl)C3)cc1N1C2CCC1COC2` [Compound 1-14, 4-[3-[2,6-Dichloro-4-[3-(trifluoromethoxy)azetidin-1-yl]benzoyl]-2,4-dihydro-1,3-benzoxazin-8-yl]-5-fluoro-2-(3-oxa-8-azabicyclo[3.2.1]octan-8-yl)benzoic acid] showed an EC50 of 4.4 nM.

In turn, `CC1(C#N)CN(c2cc(Cl)c(C(=O)N3COc4c(cccc4-c4cc(N5C6CCC5COC6)c(C(=O)O)cc4F)C3)c(Cl)c2)C1` [Compound 1-15, 4-[3-[2,6-Dichloro-4-(3-cyano-3-methylazetidin-1-yl)benzoyl]-2,4-dihydro-1,3-benzoxazin-8-yl]-5-fluoro-2-(3-oxa-8-azabicyclo[3.2.1]octan-8-yl)benzoic acid] showed a half-maximal effective concentration (EC50) of 2.7 nM.

Values taken from patent US20250171457A1, “NITROGEN-CONTAINING HETEROCYCLIC COMPOUND HAVING NRF2 ACTIVATION EFFECT” (CHUGAI SEIYAKU KABUSHIKI KAISHA, priority 2022, published 2025).
